Laboratory results taken from patent publication US20080107761A1, “Composition and Method For Promoting the Production of and/or Enhancing the Activity of Fibulin-5” (Shiseido Company, Ltd., priority 2004, published 2008).

Tested on: fibulin-5 mRNA
Assay: Expression and determination of fibulin-5 mRNA in human fibroblasts by quantitative PCR
Assay type: cell-based
Settings: for Effect on fibulin-5 production in human fibroblasts (% of the control) Mean ± SD: 24 hours culture, relative to no-addition control; for Effect of promoting fibulin-5 production (in words): summary of Table 1
Protocol: Adhering cells were suspended by a trypsin-ethylenediaminetetraacetic acid (EDTA) treatment and then filtered to obtain a homogeneous cell suspension. Cells were collected by centrifugation and suspended at 0.2x10^6 cells/ml. Three ml each of the cell suspension was inoculated to a 6-well plate. After the cells adhered, the medium was replaced with a 0.25% by weight FBS-containing DMEM. After culturing at 37° C for 24 hours, the medium was replaced with 0.25% by weight FBS-containing DMEM containing either of a few dozen of pharmaceutical agents. After culturing for further 24 hours, the culture supernatant was removed, and mRNA was recovered by the ABI PRISM 6100 Nucleic Acid PrepStation Kit (Applied Biosystems). […] The primers and probes used in this Example are as follows: The determination of mRNA expression was conducted in three groups, and was expressed in percentage relative to the mean of the no-addition control group.

Structure (SMILES) | Effect on fibulin-5 production in human fibroblasts (% of the control) Mean ± SD (25 μg/ml (0.0025% by weight)) | Effect on fibulin-5 production in human fibroblasts (% of the control) Mean ± SD (250 μg/ml (0.025% by weight)) | Effect of promoting fibulin-5 production (in words)
O=P(O)(O)O[C@H]1[C@H](OP(=O)(O)O)[C@@H](OP(=O)(O)O)[C@H](OP(=O)(O)O)[C@@H](OP(=O)(O)O)[C@H]1OP(=O)(O)O [phytic acid, myo-inositol hexakis- phosphate] | 93.0 ± 24.4 % of the control | 126.1 ± 16.4 % of the control | significant effect of promoting fibulin-5 production
O=C(O)[C@@H]1C[C@@H](O)CN1 [L-hydroxyproline, (2S,4R)-4-hydroxypyrrolidine-2-carboxylic acid] | 110.1 ± 11.0 % of the control | 147.3 ± 8.9 % of the control | significant effect of promoting fibulin-5 production
